Assay results published in article PMC10408569, “Recruitment of hexahydroquinoline as anticancer scaffold targeting inhibition of wild and mutants EGFR (EGFR^WT, EGFR^T790M, and EGFR^L858R)” (Journal of Enzyme Inhibition and Medicinal Chemistry, 2023).

Assays:
[1] = tested on: OVCAR-3; assay: NCI-60 anticancer screening (SRB); type: cell-based; conditions: Homo sapiens; OVCAR-3, ovarian cancer; one dose 10 μM; read-out: Growth Inhibition Percentage (GI %)
[2] = tested on: UACC-62; assay: NCI-60 anticancer screening (SRB); type: cell-based; conditions: Homo sapiens; UACC-62, melanoma; one dose 10 μM; read-out: Growth Inhibition Percentage (GI %)
[3] = tested on: BT-549; assay: NCI-60 anticancer screening (SRB); type: cell-based; conditions: Homo sapiens; BT-549, breast cancer; one dose 10 μM; read-out: Growth Inhibition Percentage (GI %)
[4] = tested on: HS 578T; assay: NCI-60 anticancer screening (SRB); type: cell-based; conditions: Homo sapiens; HS 578T, breast cancer; one dose 10 μM; read-out: Growth Inhibition Percentage (GI %)
[5] = tested on: SK-MEL-28; assay: NCI-60 anticancer screening (SRB); type: cell-based; conditions: Homo sapiens; SK-MEL-28, melanoma; one dose 10 μM; read-out: Growth Inhibition Percentage (GI %)
[6] = tested on: A549/ATCC; assay: NCI-60 anticancer screening (SRB); type: cell-based; conditions: Homo sapiens; A549/ATCC, NSC lung cancer; one dose 10 μM; read-out: Growth Inhibition Percentage (GI %)
[7] = tested on: UO-31; assay: NCI-60 anticancer screening (SRB); type: cell-based; conditions: Homo sapiens; UO-31, renal cancer; one dose 10 μM; read-out: Growth Inhibition Percentage (GI %)
[8] = tested on: KM 12; assay: NCI-60 anticancer screening (SRB); type: cell-based; conditions: Homo sapiens, KM12; KM 12, colon cancer; one dose 10 μM; read-out: Growth Inhibition Percentage (GI %)
[9] = tested on: MCF7; assay: NCI-60 anticancer screening (SRB); type: cell-based; conditions: Homo sapiens; MCF7, breast cancer; one dose 10 μM; read-out: Growth Inhibition Percentage (GI %)
[10] = tested on: SW-620; assay: NCI-60 anticancer screening (SRB); type: cell-based; conditions: Homo sapiens; SW-620, colon cancer; one dose 10 μM; read-out: Growth Inhibition Percentage (GI %)
[11] = tested on: MDA-MB-435; assay: NCI-60 anticancer screening (SRB); type: cell-based; conditions: Homo sapiens; MDA-MB-435, melanoma; one dose 10 μM; read-out: Growth Inhibition Percentage (GI %)
[12] = tested on: RXF 393; assay: NCI-60 anticancer screening (SRB); type: cell-based; conditions: Homo sapiens; RXF 393, renal cancer; one dose 10 μM; read-out: Growth Inhibition Percentage (GI %)
[13] = tested on: HCC-2998; assay: NCI-60 anticancer screening (SRB); type: cell-based; conditions: Homo sapiens; HCC-2998, colon cancer; one dose 10 μM; read-out: Growth Inhibition Percentage (GI %)
[14] = tested on: COLO 205; assay: NCI-60 anticancer screening (SRB); type: cell-based; conditions: Homo sapiens; COLO 205, colon cancer; one dose 10 μM; read-out: Growth Inhibition Percentage (GI %)
[15] = tested on: OVCAR-4; assay: NCI-60 anticancer screening (SRB); type: cell-based; conditions: Homo sapiens; OVCAR-4, ovarian cancer; one dose 10 μM; read-out: Growth Inhibition Percentage (GI %)
[16] = tested on: MDA-MB-231; assay: NCI-60 anticancer screening (SRB); type: cell-based; conditions: Homo sapiens; MDA-MB-231, breast cancer; one dose 10 μM; read-out: Growth Inhibition Percentage (GI %)
[17] = tested on: NCI 60 cancer cell lines; assay: NCI-60 anticancer screening (SRB), whole panel; type: cell-based, human; conditions: mean across the NCI-60 panel; one dose 10 μM
[18] = tested on: SK-OV-3; assay: NCI-60 anticancer screening (SRB); type: cell-based; conditions: Homo sapiens; SK-OV-3, ovarian cancer; one dose 10 μM; read-out: Growth Inhibition Percentage (GI %)
[19] = tested on: OVCAR-8; assay: NCI-60 anticancer screening (SRB); type: cell-based; conditions: Homo sapiens; OVCAR-8, ovarian cancer; one dose 10 μM; read-out: Growth Inhibition Percentage (GI %)
[20] = tested on: CCRF-CEM; assay: NCI-60 anticancer screening (SRB); type: cell-based; conditions: Homo sapiens, leukemia, one dose 10 μM, read-out: Growth Inhibition Percentage (GI %)
[21] = tested on: PC-3; assay: NCI-60 anticancer screening (SRB); type: cell-based; conditions: Homo sapiens; PC-3, prostate cancer; one dose 10 μM; read-out: Growth Inhibition Percentage (GI %)
[22] = tested on: NCI/ADR-RES; assay: NCI-60 anticancer screening (SRB); type: cell-based; conditions: Homo sapiens, ovarian cancer, one dose 10 μM, read-out: Growth Inhibition Percentage (GI %)
[23] = tested on: HL-60(TB); assay: NCI-60 anticancer screening (SRB); type: cell-based; conditions: Homo sapiens, leukemia, one dose 10 μM, read-out: Growth Inhibition Percentage (GI %)
[24] = tested on: TK-10; assay: NCI-60 anticancer screening (SRB); type: cell-based; conditions: Homo sapiens; TK-10, renal cancer; one dose 10 μM; read-out: Growth Inhibition Percentage (GI %)
[25] = tested on: NCI-H322M; assay: NCI-60 anticancer screening (SRB); type: cell-based; conditions: Homo sapiens, NSC lung cancer, one dose 10 μM, read-out: Growth Inhibition Percentage (GI %)
[26] = tested on: HCT-15; assay: NCI-60 anticancer screening (SRB); type: cell-based; conditions: Homo sapiens; HCT-15, colon cancer; one dose 10 μM; read-out: Growth Inhibition Percentage (GI %)
[27] = tested on: MDA-MB-468; assay: NCI-60 anticancer screening (SRB); type: cell-based; conditions: Homo sapiens; MDA-MB-468, breast cancer; one dose 10 μM; read-out: Growth Inhibition Percentage (GI %)
[28] = tested on: MOLT-4; assay: NCI-60 anticancer screening (SRB); type: cell-based; conditions: Homo sapiens; MOLT-4, leukemia; one dose 10 μM; read-out: Growth Inhibition Percentage (GI %)

CCOC(=O)C1=C(N)N(c2ccc(Cl)cc2)C2=C(C(=O)CC(C)(C)C2)C1c1cccnc1 (racemic) [12f, (±)-Ethyl 2-amino-1–(4-chlorophenyl)-7,7-dimethyl-5-oxo-4-(pyridin-3-yl)-1,4,5,6,7,8-hexahydroquinoline-3-carboxylate]
< 10%: inhibition at 10 µM [1] | inhibition at 10 µM [2] | inhibition at 10 µM [3] | inhibition at 10 µM [5] | inhibition at 10 µM [8] | inhibition at 10 µM [9] | inhibition at 10 µM [10] | inhibition at 10 µM [11] | inhibition at 10 µM [12] | inhibition at 10 µM [13] | inhibition at 10 µM [14] | inhibition at 10 µM [16] | inhibition at 10 µM [18] | inhibition at 10 µM [19] | inhibition at 10 µM [20] | inhibition at 10 µM [21] | inhibition at 10 µM [23] | inhibition at 10 µM [24] | inhibition at 10 µM [25] | inhibition at 10 µM [26] | inhibition at 10 µM [27] | inhibition at 10 µM [28]
11%: inhibition at 10 µM [22]
13%: inhibition at 10 µM [15]
15%: inhibition at 10 µM [6]
21%: inhibition at 10 µM [7]
16%: inhibition at 10 µM [4]
- ((-) = GI % mean less than 10): GI % mean [17]

CCOC(=O)C1=C(N)N(c2ccc(Cl)cc2)C2=C(C(=O)CC(C)(C)C2)C1c1ccccn1 (racemic) [12c, (±)-Ethyl 2-amino-1–(4-chlorophenyl)-7,7-dimethyl-5-oxo-4-(pyridine-2-yl)-1,4,5,6,7,8-hexahydroquinoline-3-carboxylate]
25%: inhibition at 10 µM [2]
23%: inhibition at 10 µM [7]
11%: inhibition at 10 µM [9]
12%: inhibition at 10 µM [26]
- ((-) = GI % mean less than 10): GI % mean [17]
< 10%: inhibition at 10 µM [1] | inhibition at 10 µM [3] | inhibition at 10 µM [4] | inhibition at 10 µM [5] | inhibition at 10 µM [6] | inhibition at 10 µM [8] | inhibition at 10 µM [10] | inhibition at 10 µM [11] | inhibition at 10 µM [12] | inhibition at 10 µM [13] | inhibition at 10 µM [14] | inhibition at 10 µM [15] | inhibition at 10 µM [16] | inhibition at 10 µM [18] | inhibition at 10 µM [19] | inhibition at 10 µM [20] | inhibition at 10 µM [22] | inhibition at 10 µM [23] | inhibition at 10 µM [24] | inhibition at 10 µM [25] | inhibition at 10 µM [27] | inhibition at 10 µM [28]
19%: inhibition at 10 µM [21]

CCOC(=O)C1=C(N)N(c2ccc(C)cc2)C2=C(C(=O)CC(C)(C)C2)C1c1ccc(OC)cc1 (racemic) [8g, (±)-Ethyl 2-amino-4–(4-methoxyphenyl)-7,7-dimethyl-1–(4-methylphenyl)-5-oxo-1,4,5,6,7,8-hexahydroquinoline-3-carboxylate]
- ((-) = GI % mean less than 10): GI % mean [17]
< 10%: inhibition at 10 µM [1] | inhibition at 10 µM [2] | inhibition at 10 µM [3] | inhibition at 10 µM [4] | inhibition at 10 µM [5] | inhibition at 10 µM [6] | inhibition at 10 µM [7] | inhibition at 10 µM [8] | inhibition at 10 µM [9] | inhibition at 10 µM [10] | inhibition at 10 µM [11] | inhibition at 10 µM [12] | inhibition at 10 µM [13] | inhibition at 10 µM [14] | inhibition at 10 µM [15] | inhibition at 10 µM [16] | inhibition at 10 µM [18] | inhibition at 10 µM [19] | inhibition at 10 µM [20] | inhibition at 10 µM [21] | inhibition at 10 µM [22] | inhibition at 10 µM [23] | inhibition at 10 µM [24] | inhibition at 10 µM [25] | inhibition at 10 µM [26] | inhibition at 10 µM [27] | inhibition at 10 µM [28]

CCOC(=O)C1=C(N)N(c2ccccc2)C2=C(C(=O)CC(C)(C)C2)C1c1cccnc1 (racemic) [12d]
77%: inhibition at 10 µM [7]
13%: inhibition at 10 µM [22]
12%: inhibition at 10 µM [2]
- ((-) = GI % mean less than 10): GI % mean [17]
< 10%: inhibition at 10 µM [1] | inhibition at 10 µM [3] | inhibition at 10 µM [4] | inhibition at 10 µM [5] | inhibition at 10 µM [6] | inhibition at 10 µM [8] | inhibition at 10 µM [9] | inhibition at 10 µM [10] | inhibition at 10 µM [11] | inhibition at 10 µM [12] | inhibition at 10 µM [13] | inhibition at 10 µM [14] | inhibition at 10 µM [15] | inhibition at 10 µM [16] | inhibition at 10 µM [18] | inhibition at 10 µM [19] | inhibition at 10 µM [20] | inhibition at 10 µM [21] | inhibition at 10 µM [23] | inhibition at 10 µM [24] | inhibition at 10 µM [25] | inhibition at 10 µM [26] | inhibition at 10 µM [27] | inhibition at 10 µM [28]
